Test results reported in US11986478B2 (priority 2021, dated 2024).
Where two headings read alike, the source gives them in different places.

Key:
MERS-CoV PLpro [1] = molecular target: T1, MERS-CoV PLpro (Middle East respiratory syndrome-related coronavirus, UniProt K9N7C7); type: biochemical
SARS-CoV-2 [2] = type: cell-based
SARS-CoV-2 PLpro [3] = molecular target: T2, SARS-CoV-2 PLpro (Severe acute respiratory syndrome coronavirus 2, UniProt P0DTD1); type: biochemical
MERS-CoV [4] = type: cell-based
SARS-CoV-2 PLpro [5] = molecular target: T2, SARS-CoV-2 PLpro; assay: biochemical; type: biochemical
human DUBs = type: biochemical
SARS-CoV-2 [6] = assay: microbe, parasite or virus in culture; type: cell-based; settings: Severe acute respiratory syndrome coronavirus 2, read-out: EC50 anti-SARS-CoV-2 activity
[7] = system: Huh7, VeroE6/TMPRSS2, Calu-3, Caco-2, BSC1 cells and human embryonic lung fibroblasts (HELF)
MERS-CoV [8] = type: cell-based; remark: listed apart in the source
MERS-CoV [9] = type: cell-based; remark: listed apart in the source
SARS-CoV-2 PLpro [10] = molecular target: T2, SARS-CoV-2 PLpro; type: cell-based
[11] = system: MERS-CoV-infected Huh-7 cells; type: cell-based, human
MERS-CoV PLpro [12] = molecular target: T1, MERS-CoV PLpro; type: cell-based
MERS-CoV PLpro [13] = molecular target: T1, MERS-CoV PLpro; type: biochemical; remark: listed apart in the source
Caco-2 and Huh-7 cells = type: cell-based, human
[14] = system: SARS-CoV-2-infected Caco-2 cells; type: cell-based, human
hCoV-229E = type: cell-based
SARS-CoV-2 [15] = system: SARS-CoV-2; set-up: species or system golden Syrian hamster; settings: hamster, in vivo
SARS-CoV-2 PLpro [16] = molecular target: T2, SARS-CoV-2 PLpro; type: biochemical; remark: listed apart in the source
hCoV-OC43 = type: cell-based
[17] = system: cellular proteases (serine, cysteine and acid proteases) in Huh-7, Caco-2 and A549 lysates; type: biochemical, human
SARS-CoV-2 [18] = type: cell-based; remark: listed apart in the source
[19] = read-out: IC50 against SARS-CoV-2-PLpro

T1 sequence (K9N7C7 1552-1823 limits assumed): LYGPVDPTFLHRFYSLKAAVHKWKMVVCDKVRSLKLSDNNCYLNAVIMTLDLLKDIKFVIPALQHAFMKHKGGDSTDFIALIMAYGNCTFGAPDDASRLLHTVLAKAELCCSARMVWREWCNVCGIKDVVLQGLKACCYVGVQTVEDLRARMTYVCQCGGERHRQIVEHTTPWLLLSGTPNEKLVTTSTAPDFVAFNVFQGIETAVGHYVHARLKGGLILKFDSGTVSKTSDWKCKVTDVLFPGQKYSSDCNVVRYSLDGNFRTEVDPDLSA

**Q.** Which “effect on MERS-CoV-PLpro activity” value (MERS-CoV PLpro [1]) does the source give for GRL0617 [reference compound] here?
**A.** without impairing the MERS-CoV-PLpro activity

**Q.** What about the “inhibition of virus replication by NP antigen immunofluorescence” value (SARS-CoV-2 [2]) of the same molecule?
**A.** marginal virus suppression

**Q.** And the “modification of PLpro by HA-Ub-VS” value (SARS-CoV-2 PLpro [3])?
**A.** almost completely eliminated

**Q.** And the “inhibition of virus replication by NP antigen immunofluorescence” value (MERS-CoV [4])?
**A.** marginal virus suppression

**Q.** For `Cc1cccc(NC(=O)c2sc(=S)n3c2[nH]c(=O)c2cc4c(cc23)OCO4)c1` [Compound F0393], which IC50 (SARS-CoV-2 PLpro [5]; [19]) is on record?
**A.** 15.8 µM

**Q.** Which “modification of cellular DUBs by HA-Ub-VS” value (human DUBs) does the source give for `CCN1C(=O)C=CC1=O` [NEM, N-ethyl-maleimide, reference compound] here?
**A.** diminished the modification of HA-Ub-VS on DUBs

**Q.** `COc1cc2c(=O)[nH]c3c(C(=O)Nc4cc(Cl)ccc4C)sc(=S)n3c2cc1OC` [Compound F0326] was tested. Which IC50 (SARS-CoV-2 PLpro [5]) did it give?
**A.** 8.2 µM

**Q.** And the EC50 (SARS-CoV-2 [6])?
**A.** 7.6 µM

**Q.** Which results are given for `O=C(Nc1ccccc1Cl)c1sc(=S)n2c1[nH]c(=O)c1ccccc12` [Compound F0213]?
**A.** cytotoxicity in the matching cell lines [7]: negligible cytotoxicity; antiviral EC50 against MERS-CoV compared with SARS-CoV-2 (MERS-CoV [8]): lower antiviral EC50 against MERS-CoV than SARS-CoV-2; decrease of viral yields (MERS-CoV [9]): about 3 log 10; rescue of IFN-β, IRF3 and NF-κB reporter gene expression (SARS-CoV-2 PLpro [10]): rescued the genes expression in a dose-dependent manner; IC50 (SARS-CoV-2 PLpro [5]; [19]): 7.4 µM; transcription levels of ISG15 and PKR [11]: reduced; rescue of IFN-β, IRF3 and NF-κB reporter gene expression (MERS-CoV PLpro [12]): rescued the genes expression in a dose-dependent manner; cleavage of ISG15-AMC and Ubiquitin-AMC (MERS-CoV PLpro [13]): inhibited cleavage; cellular antiviral signaling (Caco-2 and Huh-7 cells): potentiated the cellular antiviral signaling; expression of IFN-responsive genes ISG15 and PKR [14]: significantly enhanced; decrease of viral yields (hCoV-229E): about 2 log 10; inhibition of virus replication by NP antigen immunofluorescence (SARS-CoV-2 [2]): significant inhibition of virus replication; SARS-CoV-2 N expression in lung by immunofluorescence (SARS-CoV-2 [15]): reduced N expression; SARS-CoV-2 genome copies in the lungs (SARS-CoV-2 [15]): suppression; lung damage by H & E staining (SARS-CoV-2 [15]): improved morphology and milder infiltrations; decrease of virus plaque-forming units in lung tissues (SARS-CoV-2 [15]; 5 mg/kg/day): 1-2 log 10; efficacy by route on lung genome copies (SARS-CoV-2 [15]; 5 mg/kg/day): superior efficacy via PO route than that of IP injection; cleavage of ISG15-AMC and Ubiquitin-AMC (SARS-CoV-2 PLpro [16]): inhibited cleavage; modification of PLpro by HA-Ub-VS (SARS-CoV-2 PLpro [3]): eliminated in the presence of GRL0617 but not F0213; modification of cellular DUBs by HA-Ub-VS (human DUBs): no change was noted in the immunoblot pattern; inhibition of virus replication by NP antigen immunofluorescence (MERS-CoV [4]): significant inhibition of virus replication; decrease of viral yields (hCoV-OC43): around 1.5 log 10; EC50 (SARS-CoV-2 [6]): 4.5 µM; cellular protease activity [17]: not affected; reduction of SARS-CoV-2 viral yields (SARS-CoV-2 [18]): more than 1 log 10
